# Results reported in patent US20170106101A1, “METHODS INVOLVING MACROPHAGE TUMOR CELL FUSION HYBRIDS” (OREGON HEALTH & SCIENCE UNIVERSITY, priority 2015, published 2017).
# Assays:
# Assay type in all cases: cell-based, mouse
# [1] = system: unfused MC38 cancer cells; assay: Transwell chemotaxis assay towards ligand; conditions: ligand 25 ng/ml
# Experimental: (§1) Chemotaxis assay. Chemotaxis assays were performed using IncuCyte™ Chemotaxis Cell Migration Assay (Essen) with at least three technical replicates of triplicate samples. Briefly, 1000 cancer cells were plated in the top wells in DMEM+0.2% FBS after incubation in serum-free media for 20 h. Csf1 or Sdf1 ligand (25 ng/mL) was added to the bottom well and cells were incubated at 37° C. for at least 36 hours with live-imaging. The neutralizing antibodies to the Csf1R (eBioscience), Cxcr4 (Biolegend) and isotype control antibody were added to the top and bottom well (2.5 ng/μL). Migration was quantified by measuring phase contrast area of the top and bottom wells for each timepoint using IncuCyte ZOOM® software. Triplicates of each condition were performed, and the means and standard deviations were calculated. p<0.02 for hybrids treated with Csf1 or Sdf1 relative to hybrids without Csf1 or Sdf1 by unpaired t-test. Two independent hybrid isolates were analyzed. Technical octupulicates (MC38) or sextuplicates (B16F10) with biologic quadruplicates or triplicates were analyzed. For inhibitor studies technical duplicates with biologic triplicates were analyzed.
# [2] = system: MC38-derived fusion hybrids; assay: Transwell chemotaxis assay towards ligand; conditions: ligand 25 ng/ml
# Experimental: as §1
# [3] = system: MC38-derived hybrid cells; assay: Growth responsiveness to cytokines and soluble factors (MTS, confluence, viability); conditions: increasing concentrations of cytokine; MC38-derived hybrids
# Experimental: (§2) In vitro-derived hybrid proliferation. For phenotypic profiling growth responsiveness to cytokines and soluble factors, 95 different cytokines or soluble signaling molecules were distributed at high, medium and low concentrations in 384 well plates, in 25 μl of RPMI (Life Technologies, NY) supplemented with 1% FBS; and 25 μl of a 1.2×10^4 cells/ml suspension of hybrid or MC-38 cells in DMEM+4% FBS was added to each well. 99 wells of each plate were left cytokine-free and no cells were added to two of these wells, which served to provide measurements of background signal. Plates were cultured in a humidified incubator for 72 hours, after which 5 ul of MTS reagent was added to each well. Two hours later, absorbance at 490 nm was read with a 384-well plate reader. For each plate, absorbance values for each cytokine-treated well were normalized to the mean absorbance of the cytokine-free wells on that plate, and expressed in terms of standard deviations from the cytokine-free mean. Three independent hybrid isolates and three MC38 replicates were analyzed. […] In these experiments, 2.5×10^4 hybrid or MC38 cells were plated in the presence of three different concentrations for each soluble factor, or in media alone (DMEM+2.5% FBS), in triplicate for each condition. Plates were imaged every two hours for 90 hours, and then cell viability was assessed.
# [4] = system: MC38 cells; assay: as above; conditions: increasing concentrations of cytokine
# Experimental: as §2
# [5] = system: B16F10 cancer cell hybrids; assay: Transwell chemotaxis assay towards ligand; conditions: ligand 25 ng/ml
# Experimental: as §1
Molecule,migration of unfused MC38 cells towards ligand [1],migration of fusion hybrids towards ligand [2],effect on hybrid proliferation / growth [3],effect on MC38 proliferation / growth [4],migration of B16F10 hybrids towards ligand [5]
"Sdf1: strongly chemotactic lymphocyte cytokine, ligand of Cxcr4",incapable of responding,migrated towards,–,–,–
Tnf-α,–,–,resistant,profound inhibitory effect,–
"Hgf: Hepatic growth factor, cytokine tested for growth effect on MC38 and hybrid cells (protein, UniProt Q08048 33-495; Q08048 496-728, looked up) Hepatocyte growth factor …: QKKRRNTLHEFKKSAKTTLTKEDPLLKIKTKKVNSADECANRCIRNRGFTFTCKAFVFDKSRKRCYWYPFNSMSSGVKKGFGHEFDLYENKDYIRNCIIGKGGSYKGTVSITKSGIKCQPWNSMIPHEHSFLPSSYRGKDLQENYCRNPRGEEGGPWCFTSNPEVRYEVCDIPQCSEVECMTCNGESYRGPMDHTESGKTCQRWDQQTPHRHKFLPERYPDKGFDDNYCRNPDGKPRPWCYTLDPDTPWEYCAIKTCAHSAVNETDVPMETTECIQGQGEGYRGTSNTIWNGIPCQRWDSQYPHKHDITPENFKCKDLRENYCRNPDGAESPWCFTTDPNIRVGYCSQIPKCDVSSGQDCYRGNGKNYMGNLSKTRSGLTCSMWDKNMEDLHRHIFWEPDASKLNKNYCRNPDDDAHGPWCYTGNPLIPWDYCPISRCEGDTTPTIVNLDHPVISCAKTKQLR Hepatocyte growth factor beta …: VVNGIPTQTTVGWMVSLKYRNKHICGGSLIKESWVLTARQCFPARNKDLKDYEAWLGIHDVHERGEEKRKQILNISQLVYGPEGSDLVLLKLARPAILDNFVSTIDLPSYGCTIPEKTTCSIYGWGYTGLINADGLLRVAHLYIMGNEKCSQHHQGKVTLNESELCAGAEKIGSGPCEGDYGGPLICEQHKMRMVLGVIVPGRGCAIPNRPGIFVRVAYYAKWIHKVILTYKL",–,–,–,"moderate, dose-dependent growth-suppressing effect",–
"Csf1: ligand of colony stimulating factor 1 receptor, used as chemoattractant (protein, UniProt P07141 33-552, looked up) Macrophage colony-stimulating …: KEVSEHCSHMIGNGHLKVLQQLIDSQMETSCQIAFEFVDQEQLDDPVCYLKKAFFLVQDIIDETMRFKDNTPNANATERLQELSNNLNSCFTKDYEEQNKACVRTFHETPLQLLEKIKNFFNETKNLLEKDWNIFTKNCNNSFAKCSSRDVVTKPDCNCLYPKATPSSDPASASPHQPPAPSMAPLAGLAWDDSQRTEGSSLLPSELPLRIEDPGSAKQRPPRSTCQTLESTEQPNHGDRLTEDSQPHPSAGGPVPGVEDILESSLGTNWVLEEASGEASEGFLTQEAKFSPSTPVGGSIQAETDRPRALSASPFPKSTEDQKPVDITDRPLTEVNPMRPIGQTQNNTPEKTDGTSTLREDHQEPGSPHIATPNPQRVSNSATPVAQLLLPKSHSWGIVLPLGELEGKRSTRDRRSPAELEGGSASEGAARPVARFNSIPLTDTGHVEQHEGSSDPQIPESVFHLLVPGIILVLLTVGGLLFYKWKWRSHRDPQTLDSSVGRPEDSSLTQDEDRQVELPV",incapable of responding,migrated towards,–,–,low response
